Test results reported in PubChem BioAssay AID2060506 (Molecular Pharmacology Branch, DTP, NCI, 2025).

Test system: 598228-144-R-J1-PDC complex spheroid viability
Assay: Anticancer human tumor 598228-144-R-J1-PDC patient-derived serous endometrial adenocarcinoma cell line growth inhibition [GQUAD]
Conditions: for IC50: curve of first compound; for viability, T/C: stronger effect = lower value
How it was run: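 Viability of tumor cells grown as complex spheroids with endothelial and stromal cells, exposed to drug combinations. Top concentration at or near clinical Cmax (else 10 microM), diluted in half-log increments.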

[1] = second compound 0.0316 µM, first compound 0.0316 µM
[2] = second compound 0.0316 µM, first compound 0.1 µM
[3] = second compound 0.0316 µM, first compound 0.316 µM
[4] = second compound 0.0316 µM, first compound 1 µM
[5] = second compound 0.0316 µM, first compound 3.16 µM
[6] = second compound 0.0316 µM, first compound 10 µM
[7] = second compound 0.1 µM, first compound 0.0316 µM
[8] = second compound 0.1 µM, first compound 0.1 µM
[9] = second compound 0.1 µM, first compound 0.316 µM
[10] = second compound 0.1 µM, first compound 1 µM
[11] = second compound 0.1 µM, first compound 3.16 µM
[12] = second compound 0.1 µM, first compound 10 µM
[13] = second compound 0.316 µM, first compound 0.0316 µM
[14] = second compound 0.316 µM, first compound 0.1 µM
[15] = second compound 0.316 µM, first compound 0.316 µM
[16] = second compound 0.316 µM, first compound 1 µM
[17] = second compound 0.316 µM, first compound 3.16 µM
[18] = second compound 0.316 µM, first compound 10 µM
[19] = second compound 1 µM, first compound 0.0316 µM
[20] = second compound 1 µM, first compound 0.1 µM
[21] = second compound 1 µM, first compound 0.316 µM
[22] = second compound 1 µM, first compound 1 µM
[23] = second compound 1 µM, first compound 3.16 µM
[24] = second compound 1 µM, first compound 10 µM
[25] = second compound 3.16 µM, first compound 0.0316 µM
[26] = second compound 3.16 µM, first compound 0.1 µM
[27] = second compound 3.16 µM, first compound 0.316 µM
[28] = second compound 3.16 µM, first compound 1 µM
[29] = second compound 3.16 µM, first compound 3.16 µM
[30] = second compound 3.16 µM, first compound 10 µM
[31] = second compound 10 µM, first compound 0.0316 µM
[32] = second compound 10 µM, first compound 0.1 µM
[33] = second compound 10 µM, first compound 0.316 µM
[34] = second compound 10 µM, first compound 1 µM
[35] = second compound 10 µM, first compound 3.16 µM
[36] = second compound 10 µM, first compound 10 µM
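Also: spheroids exposed to the agents for one week before reading.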
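For viability, T/C in this document: percent of vehicle DMSO control viability so 100% = untreated growth.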

## CC(=O)O[C@H]1C(=O)[C@@]2(C)[C@H]([C@H](OC(=O)c3ccccc3)[C@]3(O)C[C@H](OC(=O)[C@H](O)[C@@H](NC(=O)c4ccccc4)c4ccccc4)C(C)=C1C3(C)C)[C@]1(OC(C)=O)CO[C@@H]1C[C@@H]2O + Cc1[nH]c2ccc(F)cc2c1-c1nc2c3cccnc3c3ncccc3c2[nH]1
Second compound 0.0316 µM
  IC50: 0.141 µM
Second compound 0.1 µM
  IC50: 0.051 µM
Second compound 0.316 µM
  IC50: 4.36 µM
Second compound 1 µM
  IC50: < 0.0316 µM
Second compound 3.16 µM
  IC50: < 0.0316 µM
Second compound 10 µM
  IC50: < 0.0316 µM
[1]
  viability, T/C: 56.2%
[2]
  viability, T/C: 46.4%
[3]
  viability, T/C: 48.4%
[4]
  viability, T/C: 43.9%
[5]
  viability, T/C: 50.9%
[6]
  viability, T/C: 39.8%
[7]
  viability, T/C: 55.1%
[8]
  viability, T/C: 42.1%
[9]
  viability, T/C: 52.2%
[10]
  viability, T/C: 41.7%
[11]
  viability, T/C: 40.6%
[12]
  viability, T/C: 45.6%
[13]
  viability, T/C: 63.6%
[14]
  viability, T/C: 59.6%
[15]
  viability, T/C: 52.5%
[16]
  viability, T/C: 53.3%
[17]
  viability, T/C: 50.1%
[18]
  viability, T/C: 49.1%
[19]
  viability, T/C: 49.8%
[20]
  viability, T/C: 42.9%
[21]
  viability, T/C: 50.1%
[22]
  viability, T/C: 39%
[23]
  viability, T/C: 37.5%
[24]
  viability, T/C: 40.1%
[25]
  viability, T/C: 45.2%
[26]
  viability, T/C: 33.6%
[27]
  viability, T/C: 37.5%
[28]
  viability, T/C: 39.3%
[29]
  viability, T/C: 34.9%
[30]
  viability, T/C: 38.4%
[31]
  viability, T/C: 40.3%
[32]
  viability, T/C: 46.3%
[33]
  viability, T/C: 41.7%
[34]
  viability, T/C: 49.5%
[35]
  viability, T/C: 48.3%
[36]
  viability, T/C: 39.6%

## COc1cc(C2c3cc4c(cc3C(OC3OC5COC(C)OC5C(O)C3O)C3COC(=O)C23)OCO4)cc(OC)c1O (centres undefined) + Cc1[nH]c2ccc(F)cc2c1-c1nc2c3cccnc3c3ncccc3c2[nH]1
Second compound 0.0316 µM
  IC50: > 10 µM
Second compound 0.1 µM
  IC50: > 10 µM
Second compound 0.316 µM
  IC50: > 10 µM
Second compound 1 µM
  IC50: 4.15 µM
Second compound 3.16 µM
  IC50: < 0.0316 µM
Second compound 10 µM
  IC50: 4.49 µM
[1]
  viability, T/C: 91.8%
[2]
  viability, T/C: 85.6%
[3]
  viability, T/C: 87%
[4]
  viability, T/C: 71%
[5]
  viability, T/C: 60.4%
[6]
  viability, T/C: 51.3%
[7]
  viability, T/C: 92.9%
[8]
  viability, T/C: 77.5%
[9]
  viability, T/C: 66.2%
[10]
  viability, T/C: 71.8%
[11]
  viability, T/C: 68.7%
[12]
  viability, T/C: 48.6%
[13]
  viability, T/C: 119%
[14]
  viability, T/C: 72%
[15]
  viability, T/C: 76.7%
[16]
  viability, T/C: 66%
[17]
  viability, T/C: 66%
[18]
  viability, T/C: 47.6%
[19]
  viability, T/C: 62.6%
[20]
  viability, T/C: 59.5%
[21]
  viability, T/C: 58.5%
[22]
  viability, T/C: 44.7%
[23]
  viability, T/C: 62%
[24]
  viability, T/C: 43.1%
[25]
  viability, T/C: 43.2%
[26]
  viability, T/C: 42%
[27]
  viability, T/C: 39.3%
[28]
  viability, T/C: 46.2%
[29]
  viability, T/C: 38.2%
[30]
  viability, T/C: 43.5%
[31]
  viability, T/C: 54.6%
[32]
  viability, T/C: 62.9%
[33]
  viability, T/C: 55.7%
[34]
  viability, T/C: 47.9%
[35]
  viability, T/C: 61.9%
[36]
  viability, T/C: 34.9%
